# From ChEMBL document CHEMBL4417631, “Oral peptide inhibitors of interleukin-23 receptor and their use to treat inflammatory bowel diseases” (2017)
# *1 amine or outer side, *2 acyl side, *3 side chain or, on linkers, in order; H or OH if unused. Where a SMILES comes first, the peptide text is derived from it. Bridges are numbered along the chain shown (N, C = ends). [ ]: non-standard residue; d: D form. Abu(4-yl) = O=C([C@H](CC[*:3])N[*:1])[*:2]; 2Nal = N[C@@H](Cc1ccc2ccccc2c1)C(=O)O; AEF = NCCOc1ccc(C[C@H](N)C(=O)O)cc1; αMeK = C[C@](N)(CCCCN)C(=O)O
# How the values were obtained:
# [1] = Half life in simulated gastric fluid at 20 uM by LC-MS/MS analysis; assay type: ADME
# Interleukin-23 receptor [2] = biological target: T1, Interleukin-23 receptor (Homo sapiens, UniProt Q5VWK5); test: Inhibition of interleukin-23 binding to human interleukin-23 receptor incubated for 2 hrs by competitive binding ELISA
# T1 sequence (Q5VWK5 whole entry): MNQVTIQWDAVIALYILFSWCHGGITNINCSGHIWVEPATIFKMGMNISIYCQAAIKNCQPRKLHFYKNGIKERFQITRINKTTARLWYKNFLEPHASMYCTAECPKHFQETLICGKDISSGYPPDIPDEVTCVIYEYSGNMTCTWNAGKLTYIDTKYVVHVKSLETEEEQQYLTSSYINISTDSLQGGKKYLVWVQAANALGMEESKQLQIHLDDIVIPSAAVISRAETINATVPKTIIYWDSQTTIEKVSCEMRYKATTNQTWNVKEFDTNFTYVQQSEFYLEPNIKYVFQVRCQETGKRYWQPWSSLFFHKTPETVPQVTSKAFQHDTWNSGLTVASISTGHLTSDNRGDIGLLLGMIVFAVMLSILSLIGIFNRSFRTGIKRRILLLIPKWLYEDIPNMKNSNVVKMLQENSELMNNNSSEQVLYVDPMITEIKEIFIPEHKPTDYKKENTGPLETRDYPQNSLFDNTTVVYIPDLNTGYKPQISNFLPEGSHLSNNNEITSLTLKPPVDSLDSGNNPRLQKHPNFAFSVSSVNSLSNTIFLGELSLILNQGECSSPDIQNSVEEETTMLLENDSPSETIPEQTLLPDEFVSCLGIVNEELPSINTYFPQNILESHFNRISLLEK
# Interleukin-23 receptor [3] = biological target: T1, Interleukin-23 receptor; test: Inhibition of interleukin-23 receptor in human DB cells assessed as reduction in IL-23-stimulated STAT3 phosphorylation incubated for 30 mins by HTRF assay; assay type: cell-based
# [4] = Half life in simulated intestinal fluid at 20 uM by LC-MS/MS analysis; assay type: ADME
SMILES,half-life at 20 µM [1] [min],IC50 (Interleukin-23 receptor [2]) [nM],IC50 (Interleukin-23 receptor [3]) [nM],half-life at 20 µM [4] [min]
CC(=O)NCCCC[C@H](NC(=O)[C@](C)(CC(C)C)NC(=O)[C@H](Cc1ccc2ccccc2c1)NC(=O)[C@H](Cc1ccc(OCCNC(C)=O)cc1)NC(=O)[C@@H](NC(=O)[C@H](CCC(N)=O)NC(=O)[C@H](Cc1c[nH]c2ccccc12)NC(=O)[C@@H](NC(=O)[C@H](CCC(N)=O)NC(=O)[C@@H](NC(C)=O)C(C)(C)S)[C@@H](C)O)C(C)(C)S)C(=O)N[C@@H](CC(N)=O)C(=O)N[C@@H](CC(N)=O)C(N)=O,> 360,< 10,< 10,> 360
CC(=O)N[C@H]1CCSC[C@@H](C(=O)N[C@@H](Cc2ccc(OCCN)cc2)C(=O)N[C@@H](Cc2ccc3ccccc3c2)C(=O)N[C@@](C)(CCCCN)C(=O)N[C@@H](CCC(=O)O)C(=O)N[C@@H](CC(N)=O)C(=O)NCC(N)=O)NC(=O)[C@H](CCC(N)=O)NC(=O)[C@H](Cc2c[nH]c3ccccc23)NC(=O)[C@H]([C@@H](C)O)NC(=O)[C@H]([C@@H](C)O)NC1=O,180 to 360,< 10,< 10,180 to 360
CC(=O)NCCOc1ccc(C[C@H](NC(=O)[C@@H](NC(=O)[C@H](CCC(N)=O)NC(=O)[C@H](Cc2c[nH]c3ccccc23)NC(=O)[C@@H](NC(=O)[C@H](CCC(N)=O)NC(=O)[C@@H](NC(C)=O)C(C)(C)S)[C@@H](C)O)C(C)(C)S)C(=O)N[C@@H](Cc2ccc3ccccc3c2)C(=O)NC(C)(C)C(=O)N[C@@H](CCC(=O)O)C(=O)N[C@@H](CC(N)=O)C(=O)N[C@@H](CC(N)=O)C(N)=O)cc1,> 360,10 to 25,< 10,> 360
CC(=O)NCCCC[C@H](NC(=O)C(C)(C)NC(=O)[C@H](Cc1cccc2ccccc12)NC(=O)[C@H](Cc1ccc(OCCN)cc1)NC(=O)[C@@H]1CSCC[C@H](NC(C)=O)C(=O)N[C@@H](CCC(N)=O)C(=O)N[C@@H]([C@@H](C)O)C(=O)N[C@@H](Cc2c[nH]c3ccccc23)C(=O)N[C@@H](CCC(N)=O)C(=O)N1)C(=O)N[C@@H](CC(N)=O)C(=O)NCC(N)=O,> 360,25 to 100,10 to 25,> 360
CC(=O)N[C@H](C(=O)N[C@@H](CCC(N)=O)C(=O)N[C@H](C(=O)N[C@@H](Cc1c[nH]c2ccccc12)C(=O)N[C@@H](CCC(N)=O)C(=O)N[C@H](C(=O)N[C@@H](Cc1ccc(OCCN)cc1)C(=O)N[C@@H](Cc1ccc2ccccc2c1)C(=O)NC(C)(C)C(=O)N[C@@H](CCC(=O)O)C(=O)N[C@@H](CC(N)=O)C(=O)N[C@@H](CC(N)=O)C(N)=O)C(C)(C)S)[C@@H](C)O)C(C)(C)S,> 360,< 10,< 10,> 360
CC(=O)NCCCC[C@H](NC(=O)[C@](C)(CCCCNC(C)=O)NC(=O)[C@H](Cc1ccc2ccccc2c1)NC(=O)[C@H](Cc1ccc(OCCNC(C)=O)cc1)NC(=O)[C@@H](NC(=O)[C@H](CCC(N)=O)NC(=O)[C@H](Cc1c[nH]c2ccccc12)NC(=O)[C@@H](NC(=O)[C@H](CCC(N)=O)NC(=O)[C@@H](NC(C)=O)C(C)(C)S)[C@@H](C)O)C(C)(C)S)C(=O)N[C@@H](CC(N)=O)C(=O)NCC(N)=O,> 360,< 10,< 10,> 360
CC(=O)N[C@H]1CCSC[C@@H](C(=O)N[C@@H](Cc2ccc(OCCN)cc2)C(=O)N[C@@H](Cc2ccc3ccccc3c2)C(=O)N[C@@](C)(CCCCN)C(=O)N[C@@H](CC(N)=O)C(=O)N[C@@H](CC(N)=O)C(=O)NCC(N)=O)NC(=O)[C@H](CCC(N)=O)NC(=O)[C@H](Cc2c[nH]c3ccccc23)NC(=O)[C@H]([C@@H](C)O)NC(=O)[C@H](CCC(N)=O)NC1=O (Ac-[Abu(4-yl)]QTWQC[AEF][2Nal][αMeK]NNG-NH2; thioether 1-6),180 to 360,< 10,< 10,180 to 360
CC(=O)N[C@H]1CCSC[C@@H](C(=O)N[C@@H](Cc2ccc(OCCN)cc2)C(=O)N[C@@H](Cc2ccc3ccccc3c2)C(=O)N[C@@](C)(CCCCN)C(=O)N[C@@H](CCCCNC(=O)c2ccccc2)C(=O)N[C@@H](CC(N)=O)C(=O)NCC(N)=O)NC(=O)[C@H](CCC(N)=O)NC(=O)[C@H](Cc2c[nH]c3ccccc23)NC(=O)[C@H]([C@@H](C)O)NC(=O)[C@H](CCC(N)=O)NC1=O,> 360,< 10,< 10,180 to 360
COc1ccc(C[C@H](NC(=O)[C@@H](NC(=O)[C@H](CCC(N)=O)NC(=O)[C@H](Cc2c[nH]c3ccccc23)NC(=O)[C@@H](NC(=O)[C@H](CC(N)=O)NC(=O)[C@@H](NC(C)=O)C(C)(C)S)[C@@H](C)O)C(C)(C)S)C(=O)N[C@@H](Cc2ccc3ccccc3c2)C(=O)N[C@@H](CCC(C)C)C(=O)N[C@@H](CCCCNC(C)=O)C(=O)N[C@@H](CC(N)=O)C(=O)NCCC(N)=O)cc1,< 60,–,< 10,< 60
COc1ccc(C[C@H](NC(=O)[C@@H](NC(=O)[C@H](CCC(N)=O)NC(=O)[C@H](Cc2c[nH]c3ccccc23)NC(=O)[C@@H](NC(=O)[C@H](CC(N)=O)NC(=O)[C@@H](NC(C)=O)C(C)(C)S)[C@@H](C)O)C(C)(C)S)C(=O)N[C@@H](Cc2ccc3ccccc3c2)C(=O)NC(C)(C)C(=O)N[C@@H](CCCCNC(C)=O)C(=O)N[C@@H](CC(N)=O)C(=O)N[C@@H](CCC(N)=O)C(N)=O)cc1,> 360,–,< 10,> 360
COc1ccc(C[C@H](NC(=O)[C@@H](NC(=O)[C@H](CCC(N)=O)NC(=O)[C@H](Cc2c[nH]c3ccccc23)NC(=O)[C@@H](NC(=O)[C@H](CCC(N)=O)NC(=O)[C@@H](NC(C)=O)C(C)(C)S)[C@@H](C)O)C(C)(C)S)C(=O)N[C@@H](Cc2ccc3ccccc3c2)C(=O)NC(C)(C)C(=O)N[C@@H](CCCCNC(C)=O)C(=O)N[C@@H](CC(N)=O)C(=O)N[C@@H](CC(N)=O)C(N)=O)cc1,> 360,–,< 10,180 to 360
COc1ccc(C[C@H](NC(=O)[C@@H](NC(=O)[C@H](CCC(N)=O)NC(=O)[C@H](Cc2c[nH]c3ccccc23)NC(=O)[C@@H](NC(=O)[C@H](CCC(N)=O)NC(=O)[C@@H](NC(C)=O)C(C)(C)S)[C@@H](C)O)C(C)(C)S)C(=O)N[C@@H](Cc2ccc3ccccc3c2)C(=O)NC(C)(C)C(=O)N[C@@H](CCC(=O)O)C(=O)N[C@@H](CC(N)=O)C(=O)N[C@@H](CC(N)=O)C(N)=O)cc1,> 360,–,< 10,120 to 180
COc1ccc(C[C@H](NC(=O)[C@@H](NC(=O)[C@H](CCC(N)=O)NC(=O)[C@H](Cc2c[nH]c3ccccc23)NC(=O)[C@@H](NC(=O)[C@H](CC(N)=O)NC(=O)[C@@H](NC(C)=O)C(C)(C)S)[C@@H](C)O)C(C)(C)S)C(=O)N[C@@H](Cc2ccc3ccccc3c2)C(=O)NC(C)(C)C(=O)N[C@@H](CCC(=O)O)C(=O)N[C@@H](CC(N)=O)C(=O)N[C@@H](CC(N)=O)C(N)=O)cc1,> 360,–,< 10,120 to 180
CC(=O)NCCCC[C@H](NC(=O)C(C)(C)NC(=O)[C@H](Cc1ccc2ccccc2c1)NC(=O)[C@H](Cc1ccc(OCCN)cc1)NC(=O)[C@@H](NC(=O)[C@H](CCC(N)=O)NC(=O)[C@H](Cc1c[nH]c2ccccc12)NC(=O)[C@@H](NC(=O)[C@H](CC(N)=O)NC(=O)[C@@H](NC(C)=O)C(C)(C)S)[C@@H](C)O)C(C)(C)S)C(=O)N[C@@H](CC(N)=O)C(=O)N[C@@H](C)C(N)=O,> 360,–,< 10,> 360
CC(=O)NCCCC[C@H](NC(=O)C(C)(C)NC(=O)[C@H](Cc1ccc2ccccc2c1)NC(=O)[C@H](Cc1ccc(OCCN)cc1)NC(=O)[C@@H](NC(=O)[C@H](CCC(N)=O)NC(=O)[C@H](Cc1c[nH]c2ccccc12)NC(=O)[C@@H](NC(=O)[C@H](CCC(N)=O)NC(=O)[C@@H](NC(C)=O)C(C)(C)S)[C@@H](C)O)C(C)(C)S)C(=O)N[C@@H](CC(N)=O)C(=O)NCCC(N)=O,> 360,–,< 10,> 360
CC(=O)N[C@H](C(=O)N[C@@H](CC(N)=O)C(=O)N[C@H](C(=O)N[C@@H](Cc1c[nH]c2ccccc12)C(=O)N[C@@H](CCC(N)=O)C(=O)N[C@H](C(=O)N[C@@H](Cc1ccc(OCCN)cc1)C(=O)N[C@@H](Cc1ccc2ccccc2c1)C(=O)N[C@@H](CCC(C)C)C(=O)N[C@@H](CCC(=O)O)C(=O)N[C@@H](CC(N)=O)C(=O)N[C@@H](C)C(N)=O)C(C)(C)S)[C@@H](C)O)C(C)(C)S,< 60,–,< 10,60 to 120
CC[C@H](NC(=O)[C@H](CC(N)=O)NC(=O)[C@H](CCCCNC(C)=O)NC(=O)C(C)(C)NC(=O)[C@H](Cc1ccc2ccccc2c1)NC(=O)[C@H](Cc1ccc(OC)cc1)NC(=O)[C@@H](NC(=O)[C@H](CCC(N)=O)NC(=O)[C@H](Cc1c[nH]c2ccccc12)NC(=O)[C@@H](NC(=O)[C@H](CC(N)=O)NC(=O)[C@@H](NC(C)=O)C(C)(C)S)[C@@H](C)O)C(C)(C)S)C(N)=O,> 360,–,< 10,180 to 360
